Measurements from US12052991B2, “Substituted pyridinyloxybenzenes and salts thereof and use thereof as herbicidal agents” (Bayer Aktiengesellschaft, priority 2018, dated 2024).

What was measured:
Format in all cases: in vivo
[1] = tested on: Echinochloa crus-galli (ECHCG); test: Herbicidal post-emergence action (Table B1); conditions: rated visually after about 3 weeks, 100% = plants have died, 0% = like control plants
In short: (§1)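 Weeds grown from seed in sandy loam in the greenhouse were sprayed at the one-leaf stage, 2 to 3 weeks after sowing, with WP or EC formulations in water plus 0.5% additive at 600 L/ha. Rates corresponded to 1280 or 320 g/ha; damage was rated visually versus untreated controls after about 3 weeks.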

[2] = tested on: Lolium rigidum (LOLRI); test: Herbicidal post-emergence action (Table B2); conditions: 1280 g/ha; rated visually after about 3 weeks; 100% = plants have died, 0% = like control plants
Procedure: (§2) Seeds of mono- and dicotyledonous weed plants were placed in plastic pots in sandy loam soil (doubly sown with in each case one species of mono- or dicotyledonous weed plants per pot), covered with soil and cultivated in a greenhouse under controlled growth conditions. 2 to 3 weeks after sowing, the test plants were treated at the one-leaf stage. The compounds of the invention, formulated in the form of wettable powders (WP) or as emulsion concentrates (EC), were applied onto the green parts of the plants as aqueous suspension or emulsion with addition of 0.5% additive at a water application rate of 600 liters per hectare (converted). After the test plants had been kept in the greenhouse under optimum growth conditions for about 3 weeks, the activity of the preparations was rated visually in comparison to untreated controls. For example, 100% activity=the plants have died, 0% activity=like control plants. Tables B1 to B12 below show the effects of selected compounds of the general formula (I) according to Table 1 on various harmful plants and an application rate corresponding to 1280 or 320 g/ha, which were obtained by the experimental procedure mentioned above.

[3] = tested on: Poa annua (POAAN); test: Herbicidal pre-emergence action, test C (Table C3); conditions: visual scoring after about 3 weeks, 100% = plants have died, 0% = like control plants
In short: (§3)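 Sandy loam, doubly sown pots; surface spray pre-emergence; 1280 or 320 g/ha; 0.5% additive; 600 L/ha. Greenhouse, ~3 weeks. Visual % vs untreated.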

[4] = tested on: Amaranthus retroflexus (AMARE); test: Herbicidal pre-emergence action, test C (Table C6); conditions: dosage 1280 g/ha; visual scoring after about 3 weeks; 100% = plants have died, 0% = like control plants
In short: as §3

[5] = tested on: Stellaria media (STEME); test: Herbicidal pre-emergence action, test C (Table C8); conditions: visual scoring after about 3 weeks, 100% = plants have died, 0% = like control plants
In short: as §3

[6] = tested on: Abutilon theophrasti (ABUTH); test: Herbicidal pre-emergence action, test C (Table C5); conditions: visual scoring after about 3 weeks, 100% = plants have died, 0% = like control plants
In short: as §3

[7] = tested on: Poa annua (POAAN); test: Herbicidal post-emergence action (Table B3); conditions: rated visually after about 3 weeks, 100% = plants have died, 0% = like control plants
In short: as §1

[8] = tested on: harmful plants ABUTH, AMARE, ECHCG, LOLRI, MATIN, POAAN, SETVI, STEME, ALOMY, DIGSA, KCHSC and VERPE; test: Herbicidal pre-emergence action (test C), summary of Tables C1-C12; conditions: application rate of 1280 or 320 g of active ingredient per hectare; summary in words
In short: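 Pre-emergence pot test in sandy loam: WP or EC formulations were sprayed onto the covering soil with 0.5% additive at 600 L/ha water, at 1280 or 320 g/ha. Plants were kept in the greenhouse, and activity was rated visually about 3 weeks later as % versus untreated controls (100% = dead).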

[9] = tested on: Setaria viridis (SETVI); test: Herbicidal pre-emergence action, test C (Table C4); conditions: visual scoring after about 3 weeks, 100% = plants have died, 0% = like control plants
In short: as §3

[10] = tested on: Setaria viridis (SETVI); test: Herbicidal post-emergence action (Table B4); conditions: 1280 g/ha; rated visually after about 3 weeks; 100% = plants have died, 0% = like control plants
Procedure: as §2

[11] = tested on: Echinochloa crus-galli (ECHCG); test: Herbicidal pre-emergence action, test C (Table C1); conditions: visual scoring after about 3 weeks, 100% = plants have died, 0% = like control plants
In short: as §3

[12] = tested on: Abutilon theophrasti (ABUTH); test: Herbicidal post-emergence action (Table B5); conditions: rated visually after about 3 weeks, 100% = plants have died, 0% = like control plants
In short: as §1

[13] = tested on: Matricaria inodora (MATIN); test: Herbicidal pre-emergence action, test C (Table C7); conditions: visual scoring after about 3 weeks, 100% = plants have died, 0% = like control plants
In short: as §3

[14] = tested on: harmful plants ABUTH, AMARE, ECHCG, LOLRI, MATIN, POAAN, SETVI, STEME, ALOMY, DIGSA, KCHSC and VERPE; test: Herbicidal post-emergence action, summary of Tables B1-B12; conditions: application rate of 1280 or 320 g of active ingredient per hectare; summary in words
In short: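 Greenhouse weeds in sandy loam treated post-emergence at the one-leaf stage, 2–3 weeks after sowing, with WP or EC formulations sprayed with 0.5% additive at 600 L/ha water, 1280 or 320 g/ha. Damage rated visually after about 3 weeks versus untreated controls (0% = like control, 100% = dead).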

[15] = tested on: Amaranthus retroflexus (AMARE); test: Herbicidal post-emergence action (Table B6); conditions: visual rating about 3 weeks after treatment, 100% = plants have died, 0% = like control plants
In short: as §1

[16] = tested on: Lolium rigidum (LOLRI); test: Herbicidal pre-emergence action, test C (Table C2); conditions: dosage 1280 g/ha; visual scoring after about 3 weeks; 100% = plants have died, 0% = like control plants
In short: as §3

[17] = tested on: Stellaria media (STEME); test: Herbicidal post-emergence action (Table B8); conditions: visual rating about 3 weeks after treatment, 100% = plants have died, 0% = like control plants
In short: as §1

Fc1cccnc1Oc1cccc(F)c1-c1cc(C(F)F)no1 [Example 1-23]
Post-emergence action against Echinochloa crus-galli (ECHCG) ([1]; 320 g/ha): 100% | Post-emergence action against Echinochloa crus-galli (ECHCG) ([1]; 1280 g/ha): 100% | Post-emergence action against Lolium rigidum (LOLRI) [2]: 100% | Pre-emergence action against Poa annua (POAAN) ([3]; dosage 320 g/ha): 90% | Pre-emergence action against Poa annua (POAAN) ([3]; dosage 1280 g/ha): 100% | Pre-emergence action against Amaranthus retroflexus (AMARE) [4]: 100% | Pre-emergence action against Stellaria media (STEME) ([5]; dosage 320 g/ha): 100% | Pre-emergence action against Stellaria media (STEME) ([5]; dosage 1280 g/ha): 100% | Pre-emergence action against Abutilon theophrasti (ABUTH) ([6]; dosage 320 g/ha): 100% | Pre-emergence action against Abutilon theophrasti (ABUTH) ([6]; dosage 1280 g/ha): 100% | Post-emergence action against Poa annua (POAAN) ([7]; 320 g/ha): 100% | Post-emergence action against Poa annua (POAAN) ([7]; 1280 g/ha): 100% | herbicidal activity against the harmful plants of Tables C1-C12 in pre-emergence treatment [8]: very good herbicidal activity | Pre-emergence action against Setaria viridis (SETVI) ([9]; dosage 320 g/ha): 100% | Pre-emergence action against Setaria viridis (SETVI) ([9]; dosage 1280 g/ha): 100% | Post-emergence action against Setaria viridis (SETVI) [10]: 90% | Pre-emergence action against Echinochloa crus-galli (ECHCG) ([11]; dosage 320 g/ha): 100% | Pre-emergence action against Echinochloa crus-galli (ECHCG) ([11]; dosage 1280 g/ha): 100% | Post-emergence action against Abutilon theophrasti (ABUTH) ([12]; 320 g/ha): 100% | Post-emergence action against Abutilon theophrasti (ABUTH) ([12]; 1280 g/ha): 100% | Pre-emergence action against Matricaria inodora (MATIN) ([13]; dosage 320 g/ha): 90% | Pre-emergence action against Matricaria inodora (MATIN) ([13]; dosage 1280 g/ha): 100% | herbicidal activity against the harmful plants of Tables B1-B12 in post-emergence treatment [14]: very good herbicidal activity | Post-emergence action against Amaranthus retroflexus (AMARE) ([15]; dosage 320 g/ha): 100% | Post-emergence action against Amaranthus retroflexus (AMARE) ([15]; dosage 1280 g/ha): 100% | Pre-emergence action against Lolium rigidum (LOLRI) [16]: 100% | Post-emergence action against Stellaria media (STEME) ([17]; dosage 320 g/ha): 100% | Post-emergence action against Stellaria media (STEME) ([17]; dosage 1280 g/ha): 100%
